Assay results reported in US20250205286A1, “COMPOSITIONS, REAGENTS, AND METHODS FOR TREATING PITT-HOPKINS SYNDROME” (Vitro Biopharma, Inc., priority 2022, published 2025).

Tested on: Hsp70 secretion from UC-MSCs
Experiment: Hsp70 secretion from cultured UC-MSCs exposed to LiCl (immunoassay)
Type: cell-based, human
Conditions: 200 micromolar LiCl; medium collected 96 hours later; p<0.05
Experimental: FIG. 7 is a graph showing the secretion of heat shock protein 70 (Hsp70) from cultured UC-MSCs (e.g., ALLORX STEM CELLS®) and the effects of increasing concentrations of lithium chloride (LiCl) on Hsp70 secretion.
UC-MSCs were plated at 5,000 cells/cm^2 in T-25 flasks and cultured until confluence was 80-90%. The cells were then exposed to the LiCl concentrations shown on the x axis and the medium was collected 96 hours later and assayed by immunoassay for Hsp70. […] Since Hsp70 mediates cellular protection as a chaperone molecule and through antiapoptotic mechanisms (refs), its enhanced secretion from MSCs (possible through inclusion in exosomes Ref) may reflect mechanisms of stem cell activation by GSK-3p inhibition in conjunction with HDAC inhibition (e.g., see U.S. application Ser. No. 17/239,513 which is incorporated by reference). This effect is a possible mode of action of the therapy proposed by the present disclosure.

[Cl-].[Li+] [LiCl, lithium chloride]
secretion of Hsp70: significant increased secretion
